# Assays:
# Solubility in water = format: physicochemical
# Method: A mixture of 5.00 grams of rostafuroxin (amorphous or any other crystalline form) and 50 ml of absolute ethanol was stirred until clearness. This solution was than added dropwise into 250 ml of water at room temperature under vigorous stirring at room temperature. At the end of addiction, the mixture was filtered and washed with deionized water. The product was dried under vacuum at 40° C. for 16 hours. The product contained 10.6% of water, corresponding to about 2.5 moles of water per mole of rostafuroxin (rostafuroxin.2.5H2O). Yield: 55%.
# Na—K pump = conditions: cultured renal cells, cited from earlier work
# [1] = biological target: purified sodium, potassium ATPase enzyme (Na—K ATPase); conditions: in vitro; read-out: IC50, displacement of ouabain from its binding sites on purified Na—K ATPase; cited from earlier work
# [2] = system: rats made hypertensive by chronic infusion of ouabain; conditions: ouabain 50 microg/kg/day chronic infusion, per os 0.1-1 microg/kg/day for 4 weeks; cited from earlier work
# [3] = system: other receptors involved in blood pressure regulation or hormonal control; conditions: in vitro; cited from earlier work
# normotensive rats = conditions: cited from earlier work
compound,measurement,setting,value
"CC12CCC(O)CC1CCC1C2CCC2(C)C(O)(c3ccoc3)CCC12O (stereo not drawn) [Form F, 17β-(3-furyl)-5β-androstane-3β,14β,17α-triol]",solubility in water,Solubility in water,low solubility
"C[C@@H]1O[C@@H](O[C@H]2C[C@@H](O)[C@]3(CO)[C@H]4[C@H](O)C[C@]5(C)[C@@H](C6=CC(=O)OC6)CC[C@]5(O)[C@@H]4CC[C@]3(O)C2)[C@H](O)[C@H](O)[C@H]1O [ouabain, reference compound]",concentration that stimulated the Na—K pump at Vmax,Na—K pump; incubation for 5 days,10^−10 to 10^−8 M
"C[C@]12CC[C@H](O)C[C@H]1CC[C@@H]1[C@@H]2CC[C@]2(C)[C@@](O)(c3ccoc3)CC[C@]12O [rostafuroxin, 17β-(3-furyl)-5β-androstane-3β,14β,17α-triol]",IC50,[1],1.7 µM
same,concentrations that abolished the ouabain-dependent increase in the Na—K pump rate,Na—K pump,10^−14 to 10^−9 M
same,stimulation of the Na—K pump at Vmax (same effect as ouabain),Na—K pump,showed the same effect at micromolar concentration
same,increase in blood pressure caused by ouabain,[2],abolished
same,increase in renal Na—K ATPase activity caused by ouabain,[2],abolished
same,interaction with other receptors involved in blood pressure regulation or hormonal control,[3],without interacting
same,blood pressure,normotensive rats,did not affect
same,renal Na—K ATPase activity,normotensive rats,did not affect
